Results: ChEMBL document CHEMBL4837213, “Hybrids between H2S-donors and betamethasone 17-valerate or triamcinolone acetonide inhibit mast cell degranulation and promote hyperpolarization of bronchial smooth muscle cells” (Eur J Med Chem, 2021)
The source made the active and inactive calls. The rule behind the calls is not given here.

Assays:
BSMC [1] = assay: (§1) Bronchodilatory activity in human BSMC cells assessed as induction of membrane hyperpolarization at 100 uM by spectrofluorometric analysis relative to NS1619; type: functional
[2] = (§2) Inhibition of DNP-HAS-stimulated mast cell degranulation in rat RBL-2H3 cells assessed as reduction in beta-hexosaminidase release at 100 uM incubated for 5 mins followed by DNP-HAS stimulation for 1 hr by multiplate reader analysis; type: functional; details: RBL-2H3, 1.083 h, time 65 min
[3] = Drug metabolism in human BSMC cells assessed as intracellular H2S release by measuring increase in fluorescence index at 100 uM measured every 5 mins for 60 mins by WSP-1 dye based spectrofluorometric analysis; type: ADME, cell-based; details: 1 h
BSMC [4] = assay: (§3) Bronchodilatory activity in human BSMC cells assessed as induction of membrane hyperpolarization at 300 uM by spectrofluorometric analysis relative to NS1619; type: functional
[5] = (§4) Inhibition of DNP-HAS-stimulated mast cell degranulation in rat RBL-2H3 cells assessed as reduction in beta-hexosaminidase release at 300 uM incubated for 5 mins followed by DNP-HAS stimulation for 1 hr by multiplate reader analysis; type: functional; details: RBL-2H3, 1.083 h, time 65 min
[6] = Drug metabolism in human BSMC cells assessed as intracellular H2S release by measuring increase in fluorescence index at 300 uM measured every 5 mins for 60 mins by WSP-1 dye based spectrofluorometric analysis; type: ADME, cell-based; details: 1 h
[7] = as §1; type: functional
RBL-2H3 [8] = assay: as §2; type: functional; details: time 65.0 min
[9] = as §3; type: functional
RBL-2H3 [10] = assay: as §4; type: functional; details: time 65.0 min
[11] = Inhibition of DNP-HAS-stimulated mast cell degranulation in rat RBL-2H3 cells assessed as reduction in beta-hexosaminidase release at 1 mM incubated for 5 mins followed by DNP-HAS stimulation for 1 hr by multiplate reader analysis; type: functional; details: RBL-2H3, 1.083 h, time 65 min

Row | SMILES | Drug metabolism [3] | Drug metabolism [6] | inhibition (RBL-2H3 [10]) | further results
1 | Oc1ccc(N=C=S)cc1 | Metabolite_Detected | Metabolite_Detected |  | Activity (BSMC [1]): Active; inhibition at 100 µM [2]: 75%; Activity (BSMC [4]): Active; inhibition at 300 µM [5]: 75%
2 | CCCCC(=O)O[C@]1(C(=O)COC(=O)CCC(=O)Oc2ccc(N=C=S)cc2)[C@@H](C)C[C@H]2[C@@H]3CCC4=CC(=O)C=C[C@]4(C)[C@@]3(F)[C@@H](O)C[C@@]21C | Metabolite_Detected | Metabolite_Detected | Active | fold change (FC) [7]: 4; inhibition (RBL-2H3 [8]): Active; fold change (FC) [9]: 4
3 | CCCCC(=O)O[C@]1(C(=O)COC(=O)CCC(=O)Oc2ccc(C(N)=S)cc2)[C@@H](C)C[C@H]2[C@@H]3CCC4=CC(=O)C=C[C@]4(C)[C@@]3(F)[C@@H](O)C[C@@]21C | Metabolite_Detected | Metabolite_Detected |  | 
4 | CCCCC(=O)O[C@]1(C(=O)CO)[C@@H](C)C[C@H]2[C@@H]3CCC4=CC(=O)C=C[C@]4(C)[C@@]3(F)[C@@H](O)C[C@@]21C |  |  | inactive | 
5 | CC1(C)O[C@@H]2C[C@H]3[C@@H]4CCC5=CC(=O)C=C[C@]5(C)[C@@]4(F)[C@@H](O)C[C@]3(C)[C@]2(C(=O)CO)O1 |  |  | inactive | 
6 | CC1(C)O[C@@H]2C[C@H]3[C@@H]4CCC5=CC(=O)C=C[C@]5(C)[C@@]4(F)[C@@H](O)C[C@]3(C)[C@]2(C(=O)COC(=O)CCC(=O)Oc2ccc(N=C=S)cc2)O1 | Metabolite_Detected | Metabolite_Detected | Active | fold change (FC) [7]: 4; inhibition (RBL-2H3 [8]): Active; fold change (FC) [9]: 4
7 | C=CCSSCC=C [DIALLYLDISULFIDE] | Metabolite_Detected |  |  | 
8 | O=C(O)c1cc(=O)c2c(OCC(O)COc3cccc4oc(C(=O)O)cc(=O)c34)cccc2o1 [CROMOLYN] |  |  |  | inhibition at 1000 µM [11]: 20%
9 | CC1(C)O[C@@H]2C[C@H]3[C@@H]4CCC5=CC(=O)C=C[C@]5(C)[C@@]4(F)[C@@H](O)C[C@]3(C)[C@]2(C(=O)COC(=O)CCC(=O)Oc2ccc(-c3cc(=S)ss3)cc2)O1 | Metabolite_Notdetected | Metabolite_Detected |  | 
10 | CCCCC(=O)O[C@]1(C(=O)COC(=O)CCC(=O)Oc2ccc(-c3cc(=S)ss3)cc2)[C@@H](C)C[C@H]2[C@@H]3CCC4=CC(=O)C=C[C@]4(C)[C@@]3(F)[C@@H](O)C[C@@]21C | Metabolite_Notdetected | Metabolite_Notdetected |  | 
11 | NC(=S)c1ccc(O)cc1 | Metabolite_Notdetected | Metabolite_Detected |  | 
12 | CC1(C)O[C@@H]2C[C@H]3[C@@H]4CCC5=CC(=O)C=C[C@]5(C)[C@@]4(F)[C@@H](O)C[C@]3(C)[C@]2(C(=O)COC(=O)CCC(=O)Oc2ccc(C(N)=S)cc2)O1 | Metabolite_Notdetected | Metabolite_Notdetected |  | 
13 | Oc1ccc(-c2cc(=S)ss2)cc1 | Metabolite_Notdetected | Metabolite_Notdetected |  | 
